Results from paper PMC11752888 (Frontiers in Microbiology, 2025).

These molecules were tested on JTY_0672 (TetR family transcriptional regulator) (Mycobacterium bovis BCG Tokyo 172) (assay: BLI).

| Molecule | Kd |
| --- | --- |
| ATTCATGGTCAGCGCCTTCCCCGGTGATCCGGATTATCTGCAACCGTCAG (double strand) [JTY_3148 promoter, 50 bp WT C13] | 5.03 µM |
| JTY_3148 promoter PCR fragment (biotin) | 2.2 µM |

These molecules were tested against T1, JTY_0672 (Mycobacterium tuberculosis, UniProt P96941) (assay: not given).
T1 construct: gene Rv0653c
T1 sequence (P96941 entry or part of it): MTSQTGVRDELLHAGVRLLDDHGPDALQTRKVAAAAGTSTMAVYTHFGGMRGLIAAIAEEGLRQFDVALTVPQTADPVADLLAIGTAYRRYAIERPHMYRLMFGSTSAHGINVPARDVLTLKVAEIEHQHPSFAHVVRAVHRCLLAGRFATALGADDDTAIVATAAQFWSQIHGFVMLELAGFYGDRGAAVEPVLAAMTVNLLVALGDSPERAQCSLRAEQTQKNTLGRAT

| Molecule | concentration influencing DNA binding |
| --- | --- |
| N[C@@H](CC(=O)O)C(=O)O [Asp] | 20 mM |
| N[C@@H](CS)C(=O)O [Cys] | 4 mM |
| Cc1ncc(C[n+]2csc(CCO)c2C)c(N)n1 [VB1] | 8 mM |
| O=C1O[C@H]([C@@H](O)CO)C(O)=C1O [VC] | 4 mM |
| N[C@@H](CCC(=O)O)C(=O)O [Glu] | 20 mM |
| N[C@@H](Cc1cnc[nH]1)C(=O)O [His] | 40 mM |
| O=C(O)c1cccnc1 [VB3] | 8 mM |
